The target of the experiment is T1, hPXR ligand binding domain (LBD) (Homo sapiens, UniProt O75469).
T1 construct: purchased Invitrogen
T1 sequence (O75469 146-433 limits assumed): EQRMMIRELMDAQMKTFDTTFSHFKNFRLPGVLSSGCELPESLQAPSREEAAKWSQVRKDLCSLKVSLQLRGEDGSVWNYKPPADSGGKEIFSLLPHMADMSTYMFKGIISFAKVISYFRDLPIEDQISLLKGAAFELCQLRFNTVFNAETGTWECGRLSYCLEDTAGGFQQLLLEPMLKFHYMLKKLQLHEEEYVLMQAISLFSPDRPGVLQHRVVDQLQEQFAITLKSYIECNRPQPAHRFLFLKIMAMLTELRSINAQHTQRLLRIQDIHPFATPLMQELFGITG
In words: LanthaScreen TR-FRET PXR competitive binding assay, hPXR LBD. The note with it: read-out: EC50 for ligand displacement in hPXR. How it is done: A LanthaScreen TR-FRET PXR Competitive Binding Assay was conducted according to the manufacturer's protocol (Invitrogen) as previously published (14). Briefly, serial dilutions of indole 3-propionic acid (diluted in TR-FRET PXR Assay Buffer, Invitrogen) were dispensed into triplicate wells of a black, non-treated 384 well plate (Corning Life Sciences). Subsequently, 5 μl of Fluormone PXR Green was added into each well. Finally, 5 μl of a master mix containing hPXR ligand binding domain (LBD), terbium labeled anti-glutathione S transferase (final concentration 10 nM) and dithiothreitol (final concentration 0.05 mM) was added into each well. For mPXR ligand binding domain, GST tagged mPXR LBD was purified using Glutathione Sepharose 4 Fast Flow beads (GE Health Care) in Poly-Prep Chromatography columns (Bio-Rad). hPXR LBD of the assay kit was replaced with the similar concentrations of mPXR LBD. The content was mixed briefly (10 s) and incubated in dark at room temperature for 1 h. TR-FRET was measured using SpectraMaxR M5 microplate reader (Molecular Devices) with the excitation wavelength of 340 nm and emission wavelengths of 520 and 495 nm. TR-FRET ratio was calculated by dividing the emission signal at 520 nm by emission signal at 495 nm. Data are expressed as percentage TR-FRET ratio. Error bars represent s.e.m of duplicate wells from two separate experiments.
A general note: In TR-FRET formats the signal depends on donor and acceptor labels being close together.

On to `O=C(O)CCc1c[nH]c2ccccc12` [IPA, indole-3-propionic acid], for which the 50% effective concentration (EC50) (as a rule, the concentration giving half of the maximal effect) was 2100 nM.

The record behind these values is patent US9925222B2, “Gut barrier dysfunction treatment and prevention” (ALBERT EINSTEIN COLLEGE OF MEDICINE OF YESHIVA UNIVERSITY, priority 2012, dated 2018).
